A compilation of properties of binary mixtures (doi:10.1016/j.molliq.2016.08.084)

Assay: xn = mol fraction of the nth substance listed
Conditions: 101 kPa

CCCC[n+]1ccn(C)c1.F[B-](F)(F)F + O
viscosity [mPa·s]
Conditions	293.15 K	298.15 K	303.15 K	313.15 K	323.15 K	333.15 K	343.15 K	353.15 K	363.15 K	373.15 K
x2 = 0	133.5	–	78.8	50.52	34.52	–	18.69	14.54	11.64	–
x2 = 0.034	–	88.8	69.8	45.58	31.56	22.98	17.44	13.67	–	9.06
x2 = 0.0615	–	–	–	41.37	–	21.4	16.34	12.87	–	–
x2 = 0.1135	81.4	–	51.7	–	25.01	–	14.45	–	9.39	7.83
x2 = 0.2063	56.3	45.4	37.2	26.09	19.17	14.66	11.59	9.4	7.79	6.6
x2 = 0.2802	42	34.4	28.7	20.59	15.49	12.06	9.64	7.91	–	5.71
x2 = 0.3977	–	–	19	14.1	10.89	8.67	7.11	–	5.16	4.54
